# In patent publication US20130005802A1, “TREATMENT OF WNT/FRIZZLED-RELATED DISEASES” (priority 2009, published 2013):
# Tested on: LEF/TCF transcription factor reporter (TOPFlash)
# Experiment: TOPFlash reporter assay in HEK293 cells
# Type: cell-based
# Details: Homo sapiens, read-out: TopFlash assay: IC50
# Protocol: To obtain a Frizzled1-GFP stable cell line (Fzd1GFP-U2OS), U2OS cells were transfected with pCS2ratFrizzled1-GFP and pLKO.1 (10:1 ratio by weight), using the Nucleofection transfection protocol from Amaxa, and stable receptor expressing clones were selected using 1.5 μg/mL puromycin in the culture medium. For generating TOPFlash stable cell lines, HEK293 cells were transfected with p8xTOPFlash, the Renilla luciferase plasmid, and pLKO.1 at a ratio by weight of 10:3:1 and stable clones selected using 1 μg/mL puromycin in the growth medium. pLKO.1 was used to confer puromycin resistance to the stable clones.
# For the TOPFlash Luciferase assay the TOPFlash stable cells were seeded in 150 μL growing medium/well in 96-well plates at 100% confluency. Fifty microliters of conditioned medium containing the chemical compounds to be tested or DMSO were added to each well. After an 8 hr treatment, the cells were then washed once with PBS, and lysed with 80 μL MPER solution (Pierce, Rockford, Ill.). Thirty microliters of cell lysate were used for measuring luciferase activity in a 96-well plate reader (FluoStar Optima, BMG Labtech, Chicago, Ill.).
# LEF/TCF transcription factor reporter (TOPFlash) assay is a general readout for canonical Wnt signaling pathways. […] A Renila luciferase plasmid was also generated to serve as an internal control.
# The average TOPFlash reporter activity of Wnt3A plus DMSO treatment was set as 100%, and the relative reporter activity of Wnt3A plus the indicated concentration of niclosmide was calculated and plotted.
# The compounds shown in Table 2 were purchased from Sigma-Aldrich (St. Louis, Mo.) or Chembridge (San Diego, Calif.). The activity of each of the compounds as a negative modulator of the Wnt/Frizzled signaling pathway was examined using the Top-flash assay, as described above.
row,IC50 [µM],Structure (SMILES)
1,> 12.5,"Nc1ccc(NC(=O)c2cc(Cl)ccc2O)c(Cl)c1 [Compound 1-2, N-(4-amino-2-chlorophenyl)-5-chloro-2-hydroxybenzamide]"
2,< 1,"O=C(Nc1ccc([N+](=O)[O-])cc1)c1cc(Cl)ccc1O [Compound 1-4, 5-chloro-2-hydroxy-N-(4-nitrophenyl)benzamide]"
3,> 12.5,"COc1ccc(Cl)cc1C(=O)Nc1ccc([N+](=O)[O-])cc1Cl [Compound 1-6, Benzamide, 5-chloro-N-(2-chloro-4-nitrophenyl)-2-methoxy-]"
4,> 12.5,"O=C(Nc1ccc([N+](=O)[O-])cc1Cl)c1cccc(Cl)c1 [Compound 1-7, Benzamide, 3-chloro-N-(2-chloro-4-nitrophenyl)-]"
5,> 12.5,"O=C(Nc1cc(Cl)cc(Cl)c1O)c1c(O)c(Cl)cc(Cl)c1Cl [Compound 2-1, Oxyclozanide]"
6,> 12.5,"O=C(Nc1ccc(NS(=O)(=O)c2ccc(Cl)cc2)cc1Cl)c1cc(Cl)ccc1O [Compound 3-1, 5-chloro-N-(2-chloro-4-{[(4-chlorophenyl)sulfonyl]amino}phenyl)-2-hydroxybenzamide]"
7,1 to 12.5,"O=C(Nc1ccc([N+](=O)[O-])cc1Cl)c1cc(Cl)cc(Cl)c1O [Compound 3-3, 3,5-dichloro-N-(2-chloro-4-nitrophenyl)-2-hydroxybenzamide]"
8,< 1,"O=C(Nc1ccc([N+](=O)[O-])cc1Cl)c1cc(Br)ccc1O [Compound 3-4, 5-bromo-N-(2-chloro-4-nitrophenyl)-2-hydroxybenzamide]"
9,> 12.5,"O=C1c2ccc([N+](=O)[O-])cc2C(=O)N1c1cc(Cl)ccc1O [Compound 3-6, 2-(5-chloro-2-hydroxyphenyl)-5-nitro-1H-isoindole-1,3(2H)-dione]"
10,1 to 12.5,"O=C(Nc1ccc([N+](=O)[O-])cc1Br)c1ccccc1O [Compound 3-7, N-(2-bromo-4-nitrophenyl)-2-hydroxybenzamide]"
11,1 to 12.5,"O=C(Nc1ccc([N+](=O)[O-])cc1Cl)c1ccccc1O [Compound 3-8, N-(2-chloro-4-nitrophenyl)-2-hydroxybenzamide]"
12,< 1,"COc1cc([N+](=O)[O-])ccc1NC(=O)c1cc(Cl)ccc1O [Compound 3-9, 5-chloro-2-hydroxy-N-(2-methoxy-4-nitrophenyl)benzamide]"
13,> 12.5,"O=C(Nc1cc(Cl)ccc1O)c1ccc([N+](=O)[O-])cc1 [Compound 3-10, N-(5-chloro-2-hydroxyphenyl)-4-nitrobenzamide]"
14,> 12.5,"CS(=O)(=O)c1ccc(NC(=O)c2cc(Cl)ccc2O)c(Cl)c1 [Compound 3-11, 5-chloro-N-[2-chloro-4-(methylsulfonyl)phenyl]-2-hydroxybenzamide]"

row,Structure (SMILES),IC50 [µM]
1,"O=C(Nc1ccc(Oc2ccc(Cl)cc2)c(Cl)c1)c1cc(I)cc(I)c1O [Compound 2-2, Rafoxanide]",> 12.5
2,"Cc1cc(C(C#N)c2ccc(Cl)cc2)c(Cl)cc1NC(=O)c1cc(I)cc(I)c1O (stereo not shown) [Compound 2-3, Closantel]",> 12.5
3,"O=C(Nc1ccc(Br)cc1)c1cc(Br)cc(Br)c1O [Compound 2-4, 3,5-dibromo-N-(4-bromophenyl)-2-hydroxybenzamide]",> 12.5
4,"Cc1cc([N+](=O)[O-])c(Cl)cc1NC(=O)c1ccccc1O [Compound 3-2, N-(5-chloro-2-methyl-4-nitrophenyl)-2-hydroxybenzamide]",< 1
5,"O=C(Nc1ccc([N+](=O)[O-])cc1)c1cc(Br)ccc1O [Compound 3-5, 5-bromo-2-hydroxy-N-(4-nitrophenyl)benzamide]",< 1
